Laboratory results published in paper PMC9469100, “Turning Nonselective Inhibitors of Type I Protein Arginine Methyltransferases into Potent and Selective Inhibitors of Protein Arginine Methyltransferase 4 through a Deconstruction–Reconstruction and Fragment-Growing Approach” (Journal of Medicinal Chemistry, 2022).

Key:
SET7/9 = target: T1, SET7/9 (Homo sapiens, UniProt Q8WTS6); assay: HotSpot KMT activity assay, SET7/9; assay type: biochemical; conditions: 10-dose mode, 3-fold dilution starting at 100 µM; read-out: ref. cmpd. IC50 (µM), SET7/9
T1 construct: SET7/9 (residues 2–366, C-terminus); with a N-terminal GST-tag and a C-terminal His-tag; GST (N); His (C); purchased Reaction Biology Corporation
T1 sequence (Q8WTS6 2-366): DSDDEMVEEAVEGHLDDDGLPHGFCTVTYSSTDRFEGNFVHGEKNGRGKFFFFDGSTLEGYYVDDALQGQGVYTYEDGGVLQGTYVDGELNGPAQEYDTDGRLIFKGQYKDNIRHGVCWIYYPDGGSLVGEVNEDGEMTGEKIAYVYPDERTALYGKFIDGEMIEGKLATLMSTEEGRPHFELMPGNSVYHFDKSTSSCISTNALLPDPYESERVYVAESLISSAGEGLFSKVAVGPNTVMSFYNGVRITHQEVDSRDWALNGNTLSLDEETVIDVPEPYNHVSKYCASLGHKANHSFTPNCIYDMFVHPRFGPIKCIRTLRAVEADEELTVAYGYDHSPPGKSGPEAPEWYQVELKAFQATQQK
Protocol: (§1) Then, ^3H-SAM (final concentration 1 μM) was delivered into the reaction mixture to initiate the reaction. After incubation for 60 min at 30 °C, the reaction mixture was delivered to filter-paper for detection (as assessed by scintillation). […] No inhibitor control (DMSO) was considered as 100% enzyme activity. Data were analyzed using Excel and GraphPad Prism 6.0 software (GraphPad Software Inc., San Diego, CA). Values obtained for each compound are mean ± SD determined for two separate experiments.

SUV420H1 = target: T2, SUV420H1 (Homo sapiens, UniProt Q4FZB7); assay: HotSpot KMT activity assay, SUV420H1; assay type: biochemical; conditions: 10-dose mode, 3-fold dilution starting at 100 µM; read-out: ref. cmpd. IC50 (µM), SUV420H1
T2 construct: SUV420H1-tv2 (residues 2–393); C-terminus; N-terminal GST-tag; GST (N); purchased Reaction Biology Corporation
T2 sequence (Q4FZB7 2-393 isoform Q4FZB7-2): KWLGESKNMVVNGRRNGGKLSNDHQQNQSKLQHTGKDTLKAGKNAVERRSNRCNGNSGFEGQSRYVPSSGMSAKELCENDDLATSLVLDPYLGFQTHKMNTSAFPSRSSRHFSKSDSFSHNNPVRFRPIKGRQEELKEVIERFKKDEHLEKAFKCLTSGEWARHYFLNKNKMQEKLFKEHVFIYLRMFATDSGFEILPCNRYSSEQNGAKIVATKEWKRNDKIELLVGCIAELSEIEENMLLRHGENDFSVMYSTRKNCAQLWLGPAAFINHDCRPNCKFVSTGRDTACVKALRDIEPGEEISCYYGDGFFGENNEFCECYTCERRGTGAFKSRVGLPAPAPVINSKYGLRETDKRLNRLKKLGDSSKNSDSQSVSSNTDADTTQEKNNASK
Protocol: as §1

MLL1 complex = target: T3, MLL1 complex (Homo sapiens, UniProt Q03164); assay: HotSpot KMT activity assay, MLL1; assay type: biochemical; conditions: 10-dose mode, 3-fold dilution starting at 100 µM; read-out: ref. cmpd. IC50 (µM), MLL1
T3 construct: including MLL1 residues 3745–3969, C-terminus; His (N); purchased Reaction Biology Corporation
Protocol: as §1

SUV39H2 = target: T4, SUV39H2 (Homo sapiens, UniProt Q9H5I1); assay: HotSpot KMT activity assay, SUV39H2; assay type: biochemical; conditions: 10-dose mode, 3-fold dilution starting at 100 µM; read-out: ref. cmpd. IC50 (µM), SUV39H2
T4 construct: SUV39H2 (residues 46–410, C-terminus); N-terminal fusion protein with a C-terminal His-tag; His (C); purchased Reaction Biology Corporation
T4 sequence (Q9H5I1 46-410): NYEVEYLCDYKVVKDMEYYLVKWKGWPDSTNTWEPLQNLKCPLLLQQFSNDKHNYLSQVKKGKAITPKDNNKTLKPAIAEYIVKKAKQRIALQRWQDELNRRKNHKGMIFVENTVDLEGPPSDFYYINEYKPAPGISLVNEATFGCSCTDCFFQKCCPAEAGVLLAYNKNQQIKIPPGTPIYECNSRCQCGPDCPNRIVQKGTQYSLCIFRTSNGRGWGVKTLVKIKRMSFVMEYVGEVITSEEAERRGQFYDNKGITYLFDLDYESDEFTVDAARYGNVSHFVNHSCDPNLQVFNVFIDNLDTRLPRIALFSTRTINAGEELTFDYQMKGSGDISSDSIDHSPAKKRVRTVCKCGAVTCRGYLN
Protocol: as §1

SMYD3 = SMYD3 (Homo sapiens, UniProt Q9H7B4); assay: HotSpot KMT activity assay, SMYD3; assay type: biochemical; conditions: 10-dose mode, 3-fold dilution starting at 100 µM; read-out: ref. cmpd. IC50 (µM), SMYD3
Sequence of SMYD3 (Q9H7B4 whole entry): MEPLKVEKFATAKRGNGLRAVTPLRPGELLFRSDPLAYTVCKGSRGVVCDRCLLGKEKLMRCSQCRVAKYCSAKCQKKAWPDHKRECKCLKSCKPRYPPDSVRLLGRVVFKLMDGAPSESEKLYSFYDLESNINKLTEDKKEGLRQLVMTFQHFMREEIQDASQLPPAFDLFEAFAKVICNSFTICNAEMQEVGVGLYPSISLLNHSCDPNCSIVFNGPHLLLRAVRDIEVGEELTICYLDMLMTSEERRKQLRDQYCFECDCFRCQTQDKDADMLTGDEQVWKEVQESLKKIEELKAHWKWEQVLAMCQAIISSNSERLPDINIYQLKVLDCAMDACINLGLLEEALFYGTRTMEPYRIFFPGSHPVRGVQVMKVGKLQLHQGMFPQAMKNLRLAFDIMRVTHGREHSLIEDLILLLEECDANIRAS
Protocol: as §1

PRMT4 (HEK293T cells) = assay: Western blot with pan-PRMT4 substrate antibody, HEK293T; conditions: TP-064 concentrations higher than 10 μM
MCF7 cells = assay: Cell proliferation assay (CellTiter-Glo), MCF7; assay type: cell-based, human; conditions: 10 μM TP064; 50 μM 12h; up to day 8
Protocol: (§2) HEK293T cells were seeded into 96-well plates at the density of 250 cells/well in 100 μL of medium. MCF7 cells were seeded into 96-well plates at the density of 1000 cells/well in 100 μL of medium. Cell proliferation was analyzed at day 0, day 2, day 4, day 6, and day 8, and the medium was changed at day 4. The proliferation analysis was based on viability as determined by CellTiter-Glo (#G7572, Promega) according to the manufacturer’s instructions. Triple independent repeats were conducted.

HEK293T cells = assay: Cell proliferation assay (CellTiter-Glo), HEK293T; assay type: cell-based, human; conditions: 10 μM TP064; 50 μM 12h; up to day 8
Protocol: as §2

PRMT4 (MCF7 cells) = assay: Western blot with pan-PRMT4 substrate antibody, MCF7; conditions: 12h 10 and 50 μM, TP-064 10 μM; 4 and 8 days; PRMT4sub immunoblot
PRMT7 = test system: PRMT7; parameters: method as in PMID 25893041; conditions: cited from earlier work
PRMT5 = test system: PRMT5; parameters: method as in PMID 25893041; conditions: cited from earlier work
[1] = target: Mus musculus PRMT4 PRMT core (mmPRMT4_(130–487) or mmPRMT4_(130–497)) (Mus musculus) (UniProt Q9WVG6); assay: crystal structure; cocrystallization of mmPRMT4 with compounds 12a-12c and 12f-12h, hanging drop vapor diffusion, 293 K, space group P2_(1)2_(1)2, four monomers in the asymmetric unit
[2] = target: Mus musculus PRMT6, residues 34–378 (Mus musculus) (UniProt Q6NZB1); assay: crystal structure; cocrystallization of mmPRMT6 with compounds 12a, 12c and 12f, hanging drop vapor diffusion, 293 K, space group P2_(1), two molecules in the asymmetric unit

## Nc1ncnc2c1ncn2[C@@H]1O[C@H](CSCC[C@H](N)C(=O)O)[C@@H](O)[C@H]1O [SAH, S-5′-adenosyl-L-homocysteine, reference compound]
SET7/9
  IC50: 139 µM
SUV420H1
  IC50: 46.5 µM
MLL1 complex
  IC50: 0.464 µM
SUV39H2
  IC50: 32.7 µM
SMYD3
  IC50: 18.7 µM

## CNCCN1CCC(c2cc(CN(C)C(=O)c3cccc(Oc4ccccc4)c3)ccn2)CC1 [TP-064, reference compound]
PRMT4 (HEK293T cells)
  cell death: led to cell death
MCF7 cells
  proliferation of MCF7 cells: markedly decreased
HEK293T cells
  proliferation of HEK293T cells: no effect was observed
PRMT4 (MCF7 cells)
  arginine methylation levels in MCF7 cells: profoundly affected

## CC(C)N(CCCNC(=O)Nc1ccc(C(C)(C)C)cc1)C[C@H]1O[C@@H](n2ccc3c(N)ncnc32)[C@H](O)[C@@H]1O [compound 3]
PRMT7
  IC50: 7.5 µM
PRMT5
  IC50: 0.52 µM

## Mus musculus PRMT4 PRMT core (mmPRMT4_(130–487) or mmPRMT4_(130–497)) (from UniProt Q9WVG6 130-487) (domain or fragment)
[1]
  stoichiometry N: 4

## Mus musculus PRMT6, residues 34–378 (from UniProt Q6NZB1 34-378) (domain or fragment)
[2]
  stoichiometry N: 2
